From US20250161337A1, “IMMUNOSUPPRESSIVE COMPOSITION CONTAINING L-AHG” (Kyungpook National University Industry-Academic Cooperation …, priority 2022, published 2025)

Key:
Format in all cases: cell-based, mouse
[1] = test system: T cells activated with immobilized anti-CD3/anti-CD28; assay: [3H]-thymidine incorporation (proliferation) of G0 T cells activated with immobilized anti-CD3/anti-CD28; details: for effect on [3H]thymidine incorporation of activated T cells: 25 to 400 μg/mL
Method: (§1) Isolation of resting (G0) T lymphocytes from spleens from 4-5-month-old C57BL/6J male mice was performed by a negative selection method from splenocytes using a T cell purification column kit (R&D Systems, Minneapolis, Minn., USA). At this time, the activation of G0 T cells was performed using a modification of the method of Kim et al., wherein pretreatment with rabbit anti-hamster IgG antibody (20 μg/mL) was performed so that the surface of the culture plastic container was smoothly coated with anti-CD3 (2.0 μg/mL) and anti-CD28 (2.0 μg/mL).
To evaluate the proliferation of T cells activated by immobilized anti-CD3/anti-CD28, 1×10^5 G0 T cells and each concentration of L-AHG together with 200 μL of RPMI 1640 complete medium were added to each well of a 96-well plate coated with anti-CD3 (2.0 μg/mL) and anti-CD28 (2.0 μg/mL), and activation of the cells was initiated by culture. At 29 hours after the activation, 0.25 μCi of [^3H]-thymidine was added to each well, and the amount of [^3H]-thymidine incorporated into the DNA of proliferating T cells was quantified by a liquid scintillation counter while the cells were further cultured for 12 hours.
First, using a 96-well plate, resting T cells (1×10^5 G0 T cells/well) were stimulated and activated with immobilized anti-CD3/anti-CD28 in the presence of various concentrations (0, 12.5, 25, 50, 100, 200, and 400 μg/mL) of L-AHG, NA2, NA4, or NA6. At 29 hours after the activation, 0.25 μCi of [^3H]thymidine was added to each well, followed by further culturing for an additional 12 hours. The amount of [^3H]thymidine incorporated into DNA following the T cell proliferation that occurred during this additional culturing time was quantified with a liquid scintillation counter, thereby determining the degree of T cell proliferation that occurred in each well.

[2] = test system: CD4 T cells; assay: First cell cycle progression of activated resting CD4 T cells, nocodazole arrest, DAPI flow cytometry
Method: as §1
(§2) To analyze the cell cycle of T cells activated by immobilized anti-CD3/anti-CD28 or to analyze the cytokine concentration in the culture supernatant, 3×10^6 G0 T cells and each concentration of L-AHG together with 2 mL of RPMI 1640 complete medium were added to each well of a 35-mm plate coated with anti-CD3 (2.0 μg/mL) and anti-CD28 (2.0 μg/mL), and activation of the cells was initiated by culture. At 30 hours after the activation, the culture was stopped and the cells and the culture supernatant were recovered by centrifugation.
(§3) Under the same culture conditions, in order for the first cell cycle progression initiated by the activation of G0 T cells to be arrested in prometaphase by nocodazole treatment, T lymphocytes were activated for 20 hours, and then nocodazole was added thereto at a concentration of 0.2 μg/mL, followed by followed by further culturing for an additional 10 hours. After completion of the culturing, the culture was centrifuged to recover the cells and the culture supernatant.
(§4) Resting (G0) T cells isolated from mouse splenocytes using a T cell purification column kit (R & D) and T cells obtained by activating G0 T cells with immobilized anti-CD3/anti-CD28 for a given period of time were subjected to anti-CD3, anti-CD4, anti-CD8, and DAPI staining.
(§5) About 5×10^5 cells were suspended in 100 μL of 1×PBS/1% FBS solution, and then 0.5 μg of anti-CD3, 0.5 μg of anti-CD4, and 0.5 μg of anti-CD8 were added thereto and allowed to react at 4° C. for 15 minutes, followed by washing twice with 1×PBS/1% FBS solution. Subsequently, the cells were fixed with 1% paraformaldehyde solution at 4° C. for 15 minutes, and the fixed cells were washed twice with 1×PBS solution and then stained with 10 μM DAPI for 15 minutes. The stained cells were analyzed with an Attune NxT flow cytometer (Thermo Fisher Scientific, Waltham, MA, USA) to determine the proportions of CD3 T cells, CD4 T cells, and CD8 T cells and the cell cycle distribution based on the increase in blue fluorescence depending on the amount of DAPI bound to intracellular DNA.
To this end, resting T cells were stimulated and activated with immobilized anti-CD3/anti-CD28, and when these cells reached the time point at which S phase started following G0 exit and G1 entry and progression, that is, when 20 hours have elapsed after the activation, the microtubule depolymerization agent nocodazole (a cell cycle-arresting agent that arrests cell cycle progression of eukaryotic cells at the prometaphase of M phase) was added to the cells, followed by further culturing for 10 hours. Through this unique experimental method, the first cell cycle initiated following the activation of resting T cells was allowed to progress through the G1, S, and G2 phases, and then arrest in the prometaphase of M phase due to microtubule damage caused by the effect of nocodazole. Then, these cells were recovered, treated and stained with fluorescently labeled anti-CD4 antibody, fluorescently labeled anti-CD8 antibody, and the DNA fluorescent staining reagent DAPI, and analyzed with a flow cytometer. As a result, the present inventors investigated how the aspect of the first cell cycle progression (G1, S, and G2/M phases), which is initiated following the activation of resting CD4 T cells and resting CD8 T cells, is affected by L-AHG.

[3] = test system: CD8 T cells; assay: First cell cycle progression of activated resting CD8 T cells, nocodazole arrest, DAPI flow cytometry
Method: as §1, §2, §3, §4, §5
To this end, resting T cells were stimulated and activated with immobilized anti-CD3/anti-CD28, and when these cells reached the time point at which S phase started following G0 exit and G1 entry and progression, that is, when 20 hours have elapsed after the activation, the microtubule depolymerization agent nocodazole (a cell cycle-arresting agent that arrests cell cycle progression of eukaryotic cells at the prometaphase of M phase) was added to the cells, followed by further culturing for 10 hours. […] Then, these cells were recovered, treated and stained with fluorescently labeled anti-CD4 antibody, fluorescently labeled anti-CD8 antibody, and the DNA fluorescent staining reagent DAPI, and analyzed with a flow cytometer. […]

[4] = test system: IFN-γ; assay: IFN-γ in culture supernatant of activated T cells, ELISA; details: 30 h after activation
Method: as §2
(§6) After recovering the culture supernatant of T cells, the concentrations of IFN-γ, IL-2, IL-4 and IL-13 therein were analyzed using an ELISA kit (Mouse Uncoated Elisa Kit, Invitrogen) according to the manufacturer's instructions. […] The reaction was terminated by adding 100 μl of a reaction stop solution to each well, and the absorbances at wavelengths of 450 nm and 570 nm were measured with a Varioskan Lux Multimode Microplate Reader (Thermo Fisher Scientific). At this time, the value obtained by subtracting the absorbance measured at a wavelength of 570 nm from the absorbance measured at a wavelength of 450 nm was compared with a standard curve to determine the concentrations of cytokines present in the culture supernatant. […]

[5] = test system: IL-2; assay: IL-2 in culture supernatant of activated T cells, ELISA; details: 25, 50, and 100 μg/mL; 30 h after activation
Method: as §2, §6

[6] = test system: IL-4; assay: IL-4 in culture supernatant of activated T cells, ELISA; details: 30 h after activation
Method: as §2, §6

[7] = test system: IL-13; assay: IL-13 in culture supernatant of activated T cells, ELISA; details: 25, 50, and 100 μg/mL; 30 h after activation
Method: as §2, §6

[8] = 100 μg/mL, 30 h after activation, nocodazole from 20 h

Structure (SMILES): O=C[C@@H](O)[C@@H]1OC[C@H](O)[C@H]1O [L-AHG, 3,6-anhydro-L-galactose]
- effect on the proliferation of activated T cells ([3H]thymidine incorporation) ([1]; 12.5 μg/ml, [3H]thymidine added 29 h after activation, 12 h further culture): no significant effect
- [3H]thymidine incorporation relative to untreated control group ([1]; 100 μg/mL): about 22%
- effect on [3H]thymidine incorporation of activated T cells [1]: inhibited [^3H]thymidine incorporation in a concentration-dependent manner
- [3H]thymidine incorporation ([1]; 200 to 400 μg/mL): significantly decreased to an unmeasurable level
- percentage of G1-phase CD4 T cells [2, 8]: 35.4%
- percentage of G2/M phase CD4 T cells [2, 8]: 8.8%
- percentage of S-phase CD4 T cells [2, 8]: 54.6%
- percentage of CD4 T cells remaining in the G1+S phase without entering G2/M ([2]; 100 μg/ml, 30 h after activation, nocodazole from 20 h): about 90.0%
- apoptotic cell death (proportion of apoptotic sub-G1 cells) in CD4 T cells ([2]; 25-100 μg/mL): not induced
- percentage of CD4 T cells remaining in G1 and S phases without entering G2/M ([2]; 25 to 100 μg/ml, nocodazole from 20 h): increased in a manner dependent on the concentration
- change in the percentage of G1-phase CD8 T cells [3, 8]: negligible
- percentage of G2/M CD8 T cells [3, 8]: 41.8%
- percentage of S-phase CD8 T cells [3, 8]: 46.6%
- apoptotic cell death (proportion of apoptotic sub-G1 cells) in CD8 T cells ([3]; 25-100 μg/mL): not induced
- cell cycle progression after activation of resting CD8 T cells ([3]; 25 to 50 μg/mL, nocodazole from 20 h): hardly affected
- IFN-γ concentration in culture supernatant ([4]; 25 μg/mL): hardly affected
- IFN-γ concentration in culture supernatant ([4]; 25, 50, and 100 μg/mL): significantly decreased
- IL-2 concentration in culture supernatant [5]: significantly decreased
- IL-4 concentration relative to untreated control group ([6]; 25 μg/mL): 38.5%
- IL-4 concentration in culture supernatant ([6]; 25, 50, and 100 μg/mL): significantly decreased
- IL-13 concentration in culture supernatant [7]: significantly decreased

Structure (SMILES): OC[C@H]1OC(O)[C@H](O)[C@@H](O[C@@H]2O[C@H]3CO[C@@H]([C@@H]2O)[C@@H]3O)[C@H]1O (stereo partly drawn) [NA2, neoagarobiose, reference compound]
- effect on [3H]thymidine incorporation of activated T cells [1]: no significant effect

Structure (SMILES): OC[C@H]1O[C@@H](O)[C@H](O)[C@@H](O[C@@H]2O[C@H]3CO[C@@H]([C@@H]2O)[C@@H]3O[C@@H]2O[C@H](CO)[C@H](O)[C@H](O[C@@H]3O[C@H]4CO[C@@H]([C@@H]3O)[C@@H]4O)[C@H]2O)[C@H]1O [NA4, neoagarotetraose, reference compound]
- effect on [3H]thymidine incorporation of activated T cells [1]: no significant effect

Structure (SMILES): OC[C@H]1O[C@@H](O)[C@H](O)[C@@H](O[C@@H]2O[C@H]3CO[C@@H]([C@@H]2O)[C@@H]3O[C@@H]2O[C@H](CO)[C@H](O)[C@H](O[C@@H]3O[C@H]4CO[C@@H]([C@@H]3O)[C@@H]4O[C@@H]3O[C@H](CO)[C@H](O)[C@H](O[C@@H]4O[C@H]5CO[C@@H]([C@@H]4O)[C@@H]5O)[C@H]3O)[C@H]2O)[C@H]1O [NA6, neoagarohexaose, reference compound]
- effect on [3H]thymidine incorporation of activated T cells [1]: no significant effect
